Assay results: PubChem BioAssay AID1996
≈ marks a conversion by molar mass, not a printed value.

Details: buffer; pH 7.4; 200.0 µM

Compound	solubility kinetic
CCOc1ccccc1C(=O)NCC(=O)NCCCSc1ccccc1	2.5 µg/mL (≈ 6.71 µM)
N/C(=N/OC(=O)c1cccc([N+](=O)[O-])c1)c1cccc([N+](=O)[O-])c1	0.5 µg/mL (≈ 1.51 µM)
O=C(c1cc(COc2ccc(F)cc2F)on1)N1CCSCC1	35.8 µg/mL (≈ 105 µM)
CCc1c(C)nc(N2CCN(c3ccc(OC)cc3)CC2)[nH]c1=O	5.5 µg/mL (≈ 16.7 µM)
COc1cccc(C(=O)Nc2ccc3c(c2)n(C)c(=O)n3C)c1	> 46.7 µg/mL
COc1ccc(NC(=O)C2CCCN(S(C)(=O)=O)C2)cc1Cl (centres undefined)	8.4 µg/mL (≈ 24.2 µM)
CCCn1c(COc2ccccc2)nc2ccccc21	37.4 µg/mL (≈ 140 µM)
COc1ccc(OC)c(NC(=O)CC(NC(C)=O)c2ccccc2)c1 (centres undefined)	45.3 µg/mL (≈ 132 µM)
Cc1cccc(NC(=O)C2CC(=O)N(Cc3ccccc3)C2)n1 (centres undefined)	> 46.4 µg/mL
Cc1ccc([N+](=O)[O-])cc1N=C1C(=O)Nc2ccccc21	37.4 µg/mL (≈ 133 µM)
Cc1c(C(=O)NCc2ccccn2)oc2c(Cl)cccc12	> 45.1 µg/mL
Clc1ccccc1C1Nc2cccc3cccc(c23)N1	7.5 µg/mL (≈ 26.7 µM)
Cc1cc(C(=O)NCC2CCCO2)sc1C (centres undefined)	> 35.9 µg/mL
Cc1cc(NC(=O)c2ccco2)sc1C	> 33.2 µg/mL
O=C(Cc1ccccc1F)Nc1ccc(S(=O)(=O)N2CCCC2)cc1	44.9 µg/mL (≈ 124 µM)
COc1ccc2c(COC(=O)[C@H](C)NS(=O)(=O)c3ccccc3F)cc(=O)oc2c1	59.1 µg/mL (≈ 136 µM)
COc1ccc2c(c1OC)C(=O)N(c1cccc(/C=C/C(=O)O)c1)C2	> 50.9 µg/mL
C#CCOc1ccc(/C=C2/C(=O)ON=C2C)cc1OCC	27.1 µg/mL (≈ 95 µM)
COC(=O)c1cc(OC)c(OC)cc1NC(=S)N1CCCC1	6.3 µg/mL (≈ 19.4 µM)
Cc1ccsc1/C=N/N1CCOCC1	> 31.5 µg/mL
O=C(CSc1ncnc2sccc12)NC1CCS(=O)(=O)C1 (centres undefined)	> 51.5 µg/mL

Compound	solubility kinetic
O=C(Nc1cccc(F)c1)Nc1ccc2c(c1)C(=O)OC2	< 0.3 µg/mL
COc1ccccc1NC(=O)COC(=O)Cn1cnc2c1c(=O)n(C)c(=O)n2C	> 60.2 µg/mL
COc1ccccc1-n1c(-c2ccccc2)nc2ccccc2c1=O	> 49.3 µg/mL
Cc1ccc(S(=O)(=O)NCC(=O)OCC(=O)NC2CCCCC2)cc1	> 55.3 µg/mL
Cc1ccc(C(=O)N2CCCC(Nc3ccc(F)c(F)c3)C2)cn1 (centres undefined)	> 49.7 µg/mL
CCCCN(C)Cc1c(C)[nH]c2c(ccc3ccccc32)c1=O	> 46.3 µg/mL
CCN(Cc1cc2ccccc2[nH]c1=O)C(=O)c1cccc([N+](=O)[O-])c1	39.3 µg/mL (≈ 112 µM)
COc1ccc(N2CC(C(=O)Nc3cccnc3)CC2=O)cc1 (centres undefined)	> 46.7 µg/mL
COC(=O)c1[nH]c2cc(OC)ccc2c1NC(=O)c1c(F)cccc1F	4.9 µg/mL (≈ 13.6 µM)
Cc1c(C)c(C)c(CO/N=C/c2cccs2)c(C)c1C	1.3 µg/mL (≈ 4.52 µM)
C#CC(C)(CC)NC(=O)c1cc2cccc(CC=C)c2oc1=O (centres undefined)	0.8 µg/mL (≈ 2.59 µM)
O=C1OCc2ccc(NS(=O)(=O)c3ccc(C(F)(F)F)cc3)cc21	> 53.6 µg/mL
CN(CC(=O)NC(=O)Nc1ccccc1F)Cc1ccccc1F	2.7 µg/mL (≈ 8.1 µM)
COc1cc(/C=C(\C#N)C(=O)Nc2ccccn2)ccc1O	5.9 µg/mL (≈ 20 µM)
O=C(c1cc(-c2cccc(O)c2)on1)N1CCCC1	32.6 µg/mL (≈ 126 µM)
CCN(CC(=O)NCc1cccs1)C(=O)c1ccc(S(=O)(=O)N(C)c2ccccc2)cc1	> 70.7 µg/mL
CC1Oc2ccccc2N(CC(=O)N2CCCCC2)C1=O (centres undefined)	> 43.3 µg/mL
O=C(CN1C(=O)c2ccccc2C1=O)Nc1nccs1	17.4 µg/mL (≈ 60.6 µM)
O=C(Nc1cccc(/C=C/c2ccccn2)c1)c1cc(Cl)ccn1	2.1 µg/mL (≈ 6.25 µM)
Br.COc1ccc(NC2=NCCCCC2)cc1	44.7 µg/mL
Cc1ccc(C(C)NC(=S)NC2CCCCC2)c(C)c1 (centres undefined)	9.1 µg/mL (≈ 31.3 µM)

Compound	solubility kinetic
Br.Cn1c(=N)n(CC(=O)c2ccccc2)c2ccccc21	> 51.9 µg/mL
O=C(NCc1nc(-c2ccc(C(F)(F)F)cc2)no1)Nc1ccc(F)cc1F	1.1 µg/mL (≈ 2.76 µM)
CC1(C)C(=O)N(c2ccccc2)C(=O)c2ccccc21	25.8 µg/mL (≈ 97.2 µM)
CC(C)c1ccc(OCC(=O)N2CCCN(C)CC2)cc1	> 43.6 µg/mL
CCNc1nc(NCC)nc(OCC(=O)O)n1	> 36.2 µg/mL
COc1cc(CC(=O)N(CC(C)C)C2CCS(=O)(=O)C2)cc(OC)c1OC (centres undefined)	> 59.9 µg/mL
O=C(Nc1ccc2c(c1)OCCO2)c1cccc(Cl)c1	36.9 µg/mL (≈ 127 µM)
O=c1c2ccccc2ncn1CCOc1ccccc1[N+](=O)[O-]	3.2 µg/mL (≈ 10.3 µM)
CN(C)c1cc[n+](CC(=O)c2cccs2)cc1.[Cl-]	41.7 µg/mL
CC(=O)c1c(C)c(C)c2n1CCn1c(C)ccc1-2	13.4 µg/mL (≈ 55.3 µM)
Cc1ccccc1CN(C)C1CCN(C)CC1	31.7 µg/mL (≈ 136 µM)
O=C1C2CCCN2C(=S)N1c1ccc(Cl)cc1 (centres undefined)	> 40 µg/mL
CCc1ccc(N(CC)C(=O)c2cn(C)c(=O)c3ccccc23)cc1	> 50.2 µg/mL
Cc1ccc(S(=O)(=O)NCc2csc(-c3cccs3)n2)cc1	0.7 µg/mL (≈ 2 µM)
O=C(COC(=O)/C=C/c1ccccc1Cl)NCc1ccco1	14.4 µg/mL (≈ 45 µM)
Cc1ccccc1C(=O)Nc1nc2c(C)csc2c(=O)s1	< 0.3 µg/mL
Cc1snc(SCc2ccc(F)cc2)c1C#N	3 µg/mL (≈ 11.3 µM)
Cc1ccc(C2=N/C(=C\c3ccc(F)cc3)C(=O)N2)cc1	0.7 µg/mL (≈ 2.5 µM)
N=C1c2ccccc2CN1c1cccc([N+](=O)[O-])c1	> 38 µg/mL
COc1ccc(CN2C(=O)c3cccc4cccc2c34)cc1F	9.8 µg/mL (≈ 31.9 µM)
CCN(CC)CCN=Cc1c(O)n(Cc2ccccc2)c(=O)[nH]c1=O	> 51.7 µg/mL

Compound	solubility kinetic
O=C(COC(=O)c1ccccc1O)Nc1cc([N+](=O)[O-])ccc1Cl	< 0.4 µg/mL
CN(CCOC(=O)/C=C/c1ccco1)Cc1ccccc1	> 42.8 µg/mL
CC(C)=Cc1oc2ccc([N+](=O)[O-])cc2c1N1CCOCC1	< 0.3 µg/mL
Cc1ccc2cccc(SCC(=O)Nc3ccc(F)cc3)c2n1	< 0.3 µg/mL
CC(CCc1ccccc1)NC(=O)c1cccc(F)c1 (centres undefined)	36.6 µg/mL (≈ 135 µM)
CC(C(=O)NCC1CCCCC1)N(C)Cc1cccc(Cl)c1 (centres undefined)	22.8 µg/mL (≈ 70.6 µM)
CCn1c(CCl)nc2cc(S(=O)(=O)N3CCOCC3)ccc21	12.9 µg/mL (≈ 37.5 µM)
CC(C)NC(=O)COC(=O)c1ccc(Cl)c(S(N)(=O)=O)c1	> 50.2 µg/mL
Cc1csc(NC(=O)c2ccncc2)n1	17.9 µg/mL (≈ 81.6 µM)
CC(=O)Nc1ccc(S(=O)(=O)NCCC(=O)Nc2cc(C)ccn2)cc1	> 56.5 µg/mL
O=C(O)c1c(C(=O)O)c(-c2ccc(F)cc2)n2c1CCC2	> 43.4 µg/mL
Cc1c(Cl)cccc1NC(=S)NC(=O)c1cncc(Br)c1	5.1 µg/mL (≈ 13.3 µM)
CCc1noc(C)c1C(=O)Nc1ccc(F)c(F)c1F	> 42.6 µg/mL
CC(Oc1ccc(Cl)cc1Cl)/C(N)=N/O (centres undefined)	30.2 µg/mL (≈ 121 µM)
Cc1ccc(NC(=O)CN(C)C(=O)c2ccc(Cl)c(S(=O)(=O)NCc3ccco3)c2)cc1	9 µg/mL (≈ 18.9 µM)
COc1cccc(CC(=O)OCC(=O)NC2CCCC2)c1	> 43.7 µg/mL
CC(=O)Nc1cccc(NC(=O)c2cccc3cccnc23)c1	19.2 µg/mL (≈ 62.9 µM)
CC(C)(C)c1nc(SCC(=O)NC2CCCC2)c2ccccc2n1	0.6 µg/mL (≈ 1.75 µM)
Cn1cc(C(=O)OCC(=O)NC2CCCCC2)c2ccccc21	4.8 µg/mL (≈ 15.3 µM)
CC(=O)Nc1ccc(S(=O)(=O)N[C@@H](C)C(=O)OCC(=O)c2ccc(C)cc2)cc1	37.7 µg/mL (≈ 90.1 µM)
CN(C)Cc1ccccc1CCc1ccccc1.Cl	23.9 µg/mL
